Patent publication US5001258A, “Antibiotic, fumifungin, a microbial process for the preparation thereof, and the use thereof as a pharmaceutical” (Hoechst Aktiengesellschaft, priority 1987, dated 1991)

Experiments:
bacteria = assay: bactericidal properties; type: cell-based
Cladosporium resinae = assay: MIC of fumifungin, growth inhibition of Cladosporium resinae; type: cell-based; settings: Amorphotheca resinae
fungi = assay: fungicidal properties; type: cell-based
[1] = Solubility (physicochemical properties of fumifungin); settings: solvents in which soluble
Saccharomyces cerevisiae = assay: MIC of fumifungin, growth inhibition of Saccharomyces cerevisiae; type: cell-based
Aspergillus niger = assay: MIC of fumifungin, growth inhibition of Aspergillus niger; type: cell-based
Wild yeast = assay: MIC of fumifungin, growth inhibition of Wild yeast; type: cell-based
Cercospora beticola = assay: MIC of fumifungin, growth inhibition of Cercospora beticola; type: cell-based
Candida albicans = assay: MIC of fumifungin, growth inhibition of Candida albicans; type: cell-based
Alternaria solani = assay: MIC of fumifungin, growth inhibition of Alternaria solani; type: cell-based

CCCCCCC(O)CCCCCCC=CC(O)C(OC(C)=O)C(O)C(N)C(=O)O (stereo not shown) [fumifungin, 2-amino-4-acetoxy-3,5,14-tri-hydroxy-Δ^6-eicosenoic acid]
bactericidal properties (bacteria): bactericidal
MIC (Cladosporium resinae): > 0.9 mg/mL
fungicidal properties (fungi): fungicidal
Solubility [1]: methanol, DMSO
MIC (Saccharomyces cerevisiae): 62.5 mg/mL
MIC (Aspergillus niger): > 7.8 mg/mL
MIC (Wild yeast): 62.5 mg/mL
MIC (Cercospora beticola): 0.9 mg/mL
MIC (Candida albicans): 62.5 mg/mL
MIC (Alternaria solani): 31.2 mg/mL
